Source: ChEMBL document CHEMBL1151840, “Synthetic oligoribonucleotides containing arabinonucleotides act as agonists of TLR7 and 8” (Bioorg Med Chem Lett, 2009)
Active and inactive are the calls of the source. The calls are words filed in the database; no cut-off is given here.

Key:
[1] = test system: Mus musculus; assay: Stimulation of immune response in C57BL/6 mouse assessed as induction of serum IL12 production at 50 mg/kg, sc after 2 hrs by luminex multiplex assay; assay type: functional, organism-based; design: dose 50 mg/kg
[2] = organism: Homo sapiens; assay: Stimulation of immune response in human pDC assessed as induction of TNFalpha production at 150 ug/ml after 24 hrs; assay type: functional
[3] = molecular target: T1, Toll-like receptor 8 (Homo sapiens) (UniProt Q9NR97); assay: Agonist activity at human TLR8 expressed in HEK293XL cells assessed as NF-kappaB activation after 18 hrs; assay type: functional, cell-based
T1 sequence (whole entry): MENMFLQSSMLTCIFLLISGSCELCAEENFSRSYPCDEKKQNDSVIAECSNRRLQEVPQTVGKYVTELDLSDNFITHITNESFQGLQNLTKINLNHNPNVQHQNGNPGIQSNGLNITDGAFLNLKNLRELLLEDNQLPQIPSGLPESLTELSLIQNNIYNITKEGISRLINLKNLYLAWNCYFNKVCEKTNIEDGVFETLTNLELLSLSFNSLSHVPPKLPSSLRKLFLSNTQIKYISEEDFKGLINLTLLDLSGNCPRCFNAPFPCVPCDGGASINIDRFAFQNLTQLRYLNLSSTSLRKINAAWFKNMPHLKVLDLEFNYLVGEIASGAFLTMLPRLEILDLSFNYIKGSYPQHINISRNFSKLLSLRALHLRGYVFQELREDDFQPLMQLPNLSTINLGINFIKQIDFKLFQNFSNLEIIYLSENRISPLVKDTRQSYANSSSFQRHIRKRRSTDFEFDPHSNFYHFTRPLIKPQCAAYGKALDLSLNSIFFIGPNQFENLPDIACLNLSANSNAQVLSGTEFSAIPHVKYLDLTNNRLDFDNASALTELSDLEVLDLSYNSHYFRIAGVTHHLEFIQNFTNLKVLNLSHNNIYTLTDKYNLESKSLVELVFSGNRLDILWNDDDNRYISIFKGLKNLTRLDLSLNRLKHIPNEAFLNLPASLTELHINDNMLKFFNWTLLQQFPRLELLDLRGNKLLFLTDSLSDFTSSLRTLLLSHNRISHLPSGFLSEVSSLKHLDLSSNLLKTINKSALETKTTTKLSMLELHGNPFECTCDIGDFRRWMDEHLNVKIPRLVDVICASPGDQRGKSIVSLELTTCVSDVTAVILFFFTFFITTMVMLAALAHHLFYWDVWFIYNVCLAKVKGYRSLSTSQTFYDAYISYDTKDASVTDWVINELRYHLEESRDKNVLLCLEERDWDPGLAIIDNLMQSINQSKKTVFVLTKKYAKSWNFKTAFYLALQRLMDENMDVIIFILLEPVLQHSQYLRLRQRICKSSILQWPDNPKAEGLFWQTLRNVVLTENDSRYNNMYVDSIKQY

[4] = test system: PBMC; assay: Stimulation of immune response in human PBMC assessed as induction of MIP1beta production at 150 ug/ml after 24 hrs; assay type: functional, cell-based
[5] = test system: PBMC; assay: Stimulation of immune response in human PBMC assessed as induction of IL8 production at 150 ug/ml after 24 hrs; assay type: functional, cell-based
[6] = organism: Homo sapiens; assay: Stimulation of immune response in human pDC assessed as induction of IL12 production at 150 ug/ml after 24 hrs; assay type: functional
[7] = test system: PBMC; assay: Stimulation of immune response in human PBMC assessed as induction of TNFalpha production at 150 ug/ml after 24 hrs; assay type: functional, cell-based
[8] = organism: Homo sapiens; assay: Stimulation of immune response in human pDC assessed as induction of MIP1alpha production at 150 ug/ml after 24 hrs; assay type: functional
[9] = test system: PBMC; assay: Stimulation of immune response in human PBMC assessed as induction of RANTES production at 150 ug/ml after 24 hrs; assay type: functional, cell-based
[10] = test system: PBMC; assay: Stimulation of immune response in human PBMC assessed as induction of IFNalpha production at 150 ug/ml after 24 hrs; assay type: functional, cell-based
[11] = Stability in human serum assessed as full-length compound remaining after 10 mins by anion-exchange HPLC; assay type: ADME, cell-free; details: read-out: Stability
[12] = test system: PBMC; assay: Stimulation of immune response in human PBMC assessed as induction of IL1-beta production at 150 ug/ml after 24 hrs; assay type: functional, cell-based
[13] = test system: PBMC; assay: Stimulation of immune response in human PBMC assessed as induction of MCP1 production at 150 ug/ml after 24 hrs; assay type: functional, cell-based
[14] = organism: Homo sapiens; assay: Stimulation of immune response in human pDC assessed as induction of MIP1beta production at 150 ug/ml after 24 hrs; assay type: functional
[15] = test system: PBMC; assay: Stimulation of immune response in human PBMC assessed as induction of IFN-gamma production at 150 ug/ml after 24 hrs; assay type: functional, cell-based
[16] = molecular target: T2, Toll-like receptor 7 (Homo sapiens) (UniProt Q9NYK1); assay: Agonist activity at human TLR7 expressed in HEK293XL cells assessed as NF-kappaB activation at 300 ug/ml after 18 hrs; assay type: functional, cell-based
T2 sequence (whole entry): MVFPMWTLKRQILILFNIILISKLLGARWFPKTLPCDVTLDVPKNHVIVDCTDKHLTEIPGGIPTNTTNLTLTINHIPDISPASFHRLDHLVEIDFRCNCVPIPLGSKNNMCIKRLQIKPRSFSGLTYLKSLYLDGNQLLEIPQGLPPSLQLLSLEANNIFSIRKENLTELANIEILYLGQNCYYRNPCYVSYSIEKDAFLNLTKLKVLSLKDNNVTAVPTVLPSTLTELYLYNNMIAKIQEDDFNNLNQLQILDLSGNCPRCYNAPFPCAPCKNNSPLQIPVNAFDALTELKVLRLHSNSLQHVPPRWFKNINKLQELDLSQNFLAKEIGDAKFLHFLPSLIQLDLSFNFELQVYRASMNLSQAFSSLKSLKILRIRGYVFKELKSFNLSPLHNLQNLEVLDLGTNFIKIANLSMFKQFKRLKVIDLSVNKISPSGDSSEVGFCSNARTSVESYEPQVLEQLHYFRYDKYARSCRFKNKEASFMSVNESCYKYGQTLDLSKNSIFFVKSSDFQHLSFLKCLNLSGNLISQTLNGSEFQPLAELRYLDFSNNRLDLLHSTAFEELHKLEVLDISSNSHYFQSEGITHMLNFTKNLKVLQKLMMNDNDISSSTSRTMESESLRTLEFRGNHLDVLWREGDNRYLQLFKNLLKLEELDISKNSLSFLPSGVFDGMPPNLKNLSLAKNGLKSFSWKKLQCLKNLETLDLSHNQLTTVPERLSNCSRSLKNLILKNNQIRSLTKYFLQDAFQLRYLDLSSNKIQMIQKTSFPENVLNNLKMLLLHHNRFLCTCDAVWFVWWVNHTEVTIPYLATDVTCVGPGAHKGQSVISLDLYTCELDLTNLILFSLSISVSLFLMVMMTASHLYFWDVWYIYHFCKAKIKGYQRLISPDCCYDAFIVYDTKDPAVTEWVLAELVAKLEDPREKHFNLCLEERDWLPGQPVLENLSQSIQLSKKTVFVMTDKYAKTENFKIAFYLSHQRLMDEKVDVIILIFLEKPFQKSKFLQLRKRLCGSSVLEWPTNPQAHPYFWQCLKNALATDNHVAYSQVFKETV

[17] = test system: PBMC; assay: Stimulation of immune response in human PBMC assessed as induction of IL12 production at 150 ug/ml after 24 hrs; assay type: functional, cell-based
[18] = organism: Homo sapiens; assay: Stimulation of immune response in human pDC assessed as induction of IFN-gamma production at 150 ug/ml after 24 hrs; assay type: functional
[19] = organism: Homo sapiens; assay: Stimulation of immune response in human pDC assessed as induction of IFNalpha production at 150 ug/ml after 24 hrs; assay type: functional
[20] = test system: PBMC; assay: Stimulation of immune response in human PBMC assessed as induction of IL10 production at 150 ug/ml after 24 hrs; assay type: functional, cell-based
[21] = test system: PBMC; assay: Stimulation of immune response in human PBMC assessed as induction of MIP1alpha production at 150 ug/ml after 24 hrs; assay type: functional, cell-based
[22] = test system: PBMC; assay: Stimulation of immune response in human PBMC assessed as induction of IL2R level at 150 ug/ml after 24 hrs; assay type: functional, cell-based

SMILES: Nc1ccn([C@@H]2O[C@H](COP(=O)(S)O[C@H]3[C@@H](O)[C@H](n4ccc(=O)[nH]c4=O)O[C@@H]3COP(=O)(S)O[C@H]3[C@@H](O)[C@H](n4ccc(=O)[nH]c4=O)O[C@@H]3COP(=O)(S)O[C@H]3[C@@H](O)[C@H](n4cnc5c(=O)[nH]c(N)nc54)O[C@@H]3COP(=O)(S)O[C@H]3[C@@H](O)[C@H](n4ccc(=O)[nH]c4=O)O[C@@H]3COP(=O)(S)O[C@H]3[C@@H](O)[C@H](n4cnc5c(=O)[nH]c(N)nc54)O[C@@H]3COP(=O)(S)OCC(O)COP(=O)(S)O[C@H]3[C@@H](O)[C@H](n4cnc5c(=O)[nH]c(N)nc54)O[C@@H]3COP(=O)(S)O[C@H]3[C@@H](O)[C@H](n4ccc(=O)[nH]c4=O)O[C@@H]3COP(=O)(S)O[C@H]3[C@@H](O)[C@H](n4cnc5c(=O)[nH]c(N)nc54)O[C@@H]3COP(=O)(S)O[C@H]3[C@@H](O)[C@H](n4ccc(=O)[nH]c4=O)O[C@@H]3COP(=O)(S)O[C@H]3[C@@H](O)[C@H](n4ccc(=O)[nH]c4=O)O[C@@H]3COP(=O)(S)O[C@H]3[C@@H](O)[C@H](n4ccc(N)nc4=O)O[C@@H]3COP(=O)(S)O[C@H]3[C@@H](O)[C@H](n4cnc5c(=O)[nH]c(N)nc54)O[C@@H]3COP(=O)(S)O[C@H]3[C@H](O)[C@H](n4ccc(=O)[nH]c4=O)O[C@@H]3COP(=O)(S)O[C@H]3[C@@H](O)[C@H](n4ccc(N)nc4=O)O[C@@H]3COP(=O)(S)O[C@H]3[C@@H](O)[C@H](n4cnc5c(=O)[nH]c(N)nc54)O[C@@H]3COP(=O)(S)O[C@H]3[C@H](O)[C@H](n4ccc(=O)[nH]c4=O)O[C@@H]3CO)[C@@H](OP(=O)(S)OC[C@H]3O[C@@H](n4cnc5c(=O)[nH]c(N)nc54)[C@H](O)[C@@H]3OP(=O)(S)OC[C@H]3O[C@@H](n4ccc(=O)[nH]c4=O)[C@@H](O)[C@@H]3OP(=O)(S)OC[C@H]3O[C@@H](n4ccc(N)nc4=O)[C@H](O)[C@@H]3OP(=O)(S)OC[C@H]3O[C@@H](n4cnc5c(=O)[nH]c(N)nc54)[C@H](O)[C@@H]3OP(=O)(S)OC[C@H]3O[C@@H](n4ccc(=O)[nH]c4=O)[C@@H](O)[C@@H]3OP(=O)(O)S)[C@H]2O)c(=O)n1 (some centres not stated)
- Activity [1]: inactive
- Activity [2]: Active
- Activity [3]: Dose-dependent effect
- Activity [4]: Active
- Activity [5]: Active
- Activity [6]: Active
- Activity [7]: Active
- Activity [8]: Active
- Activity [9]: Active
- Activity [10]: Active
- remaining at 10 min [11]: 76%
- Activity [12]: Active
- Activity [13]: Active
- Activity [14]: Active
- Activity [15]: Active
- Activity [16]: inactive
- Activity [17]: Active
- Activity [18]: Active
- Activity [19]: inactive
- Activity [20]: Active
- Activity [21]: Active
- Activity [22]: Active
